From US4382935A, “Analgesic drug containing a derivative of benzylpiperazine” (Buzas; Andre, priority 1980, dated 1983)
“And” between values parts separate entries of the source, which are not always exact repeats. Identical values can stand only once.

How the values were obtained:
[1] = target: T1, rat fundus (Rattus norvegicus, UniProt P30994); experiment: Antagonism with respect to serotonin on isolated organ; assay type: cell-based; details: for nature of antagonism with respect to serotonin: rat fundus, agonist serotonin
T1 construct: The organ under study is the rat fundus; from tissue; host or cells: isolated rat fundus
T1 sequence (P30994 whole entry): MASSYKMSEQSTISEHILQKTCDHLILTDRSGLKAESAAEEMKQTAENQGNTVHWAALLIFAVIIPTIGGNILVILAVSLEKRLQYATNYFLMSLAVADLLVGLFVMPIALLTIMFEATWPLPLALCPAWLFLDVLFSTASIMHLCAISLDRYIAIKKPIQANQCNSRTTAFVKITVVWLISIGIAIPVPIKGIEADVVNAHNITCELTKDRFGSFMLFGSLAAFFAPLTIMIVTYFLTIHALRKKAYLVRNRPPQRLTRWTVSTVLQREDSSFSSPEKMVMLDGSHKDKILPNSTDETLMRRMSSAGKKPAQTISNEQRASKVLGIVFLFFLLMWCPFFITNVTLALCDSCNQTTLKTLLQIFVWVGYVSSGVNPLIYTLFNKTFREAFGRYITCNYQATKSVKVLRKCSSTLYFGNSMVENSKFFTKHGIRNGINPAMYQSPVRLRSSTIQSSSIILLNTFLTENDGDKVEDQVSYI
Experimental: (§1) These interactions are sought on isolated organs which are maintained in a state of survival in a nutrient liquid. The contractions of these organs are recorded on a kymograph by means of an isotonic mechanism.
(§2) An agonist is added to the nutrient liquid bath, either alone or after addition of an antagonist, to increasing concentrations which serve to plot cumulative dose-response curves.
The organ under study is the rat fundus, the nutrient liquid employed is Kreps liquid, the agonist is serotonin and the antagonist is the product under study.

[2] = system: mice; experiment: Siegmund test with phenylbenzoquinone in mice; assay type: in vivo; details: Mus musculus, po, 1 h, peroral, one hour before phenylbenzoquinone i.p., read-out: DE50 (50% reduction in the number of contortions)
Experimental: This test has been performed in accordance with the method described by Siegmund, Cadmus and Lu ("A method for evaluating both non-narcotic and narcotic analgesics", Proc. Soc. Exp. Biol. Med., 1957, 95, 729-731).
(§3) One hour after peroral administration of the product under study to batches of twelve mice per dose, phenylbenzoquinone in solution in a proportion of 0.02% in water containing 5% ethyl alcohol is administered by intraperitoneal injection in a proportion of 0.25 ml per mouse of 20 g.
The dose DE50 (which produces a 50% reduction in the number of contortions with respect to the reference animals) is calculated on the basis of the dose/effect relation.

[3] = system: rat fundus; experiment: Antagonism produced by harmine on rat fundus; assay type: cell-based; details: product as agonist, harmine as antagonist
Experimental: as §1, §2
The organ studied in this case is the rat fundus the nutrient liquid is the Kreps liquid, the agonist corresponds to the product under study and the antagonist is harmine.

[4] = system: rat fundus; experiment: Agonism on the rat fundus; assay type: cell-based; details: product under study as agonist
Experimental: as §1, §2
The organ under study is the rat fundus, the nutrient liquid is the Kreps liquid and the agonist is the product under study.

[5] = target: morphine-compound cerebral receptors; experiment: Fixation on morphine-compound cerebral receptors (displacement of tritiated etorphin); assay type: binding; details: rat-brain homogenate, 1 mg/ml protein, 30 minutes at 35° C; read-out: CI50 (displacement of tritiated etorphin)
Experimental: It is sought to determine the affinity of the products under study by means of their capacity for displacement of tritiated etorphin in a rat-brain homogenate (containing 1 mg/ml of protein) over a period of 30 minutes at 35° C. This test consists in determining the value CI50 corresponding to the concentration of products which are capable of inhibiting 50% of the specific radioactive ligand bond.

[6] = system: mice; experiment: Heating-plate test performed on mice (Eddy test); assay type: in vivo; details: peroral, one hour before test, plate at 56.5° C; for ED30: Mus musculus, po, 1 h, read-out: DE30 (30% increase in licking time)
Experimental: This test has been carried out in accordance with the method described by N. B. Eddy (J. Pharmacol: 1932, 45, 339-359).
One hour after the product under study has been administered perorally to batches of twelve mice per dose, the time taken by the mice to lick their front paws is measured, the mice having been placed on a plate heated to a temperature of 56.5° C.
The dose DE30 (which produces a 30% increase in licking time with respect to the reference animals) is calculated on the basis of the dose/effect relation.

[7] = target: T2, guinea-pig ileum (Cavia porcellus, UniProt P31389); experiment: Antagonism with respect to histamine on isolated organ; assay type: cell-based; details: agonist histamine
T2 construct: the organ on which this action has been studied is the guinea-pig ileum; from tissue; host or cells: isolated guinea-pig ileum
T2 sequence (P31389 whole entry): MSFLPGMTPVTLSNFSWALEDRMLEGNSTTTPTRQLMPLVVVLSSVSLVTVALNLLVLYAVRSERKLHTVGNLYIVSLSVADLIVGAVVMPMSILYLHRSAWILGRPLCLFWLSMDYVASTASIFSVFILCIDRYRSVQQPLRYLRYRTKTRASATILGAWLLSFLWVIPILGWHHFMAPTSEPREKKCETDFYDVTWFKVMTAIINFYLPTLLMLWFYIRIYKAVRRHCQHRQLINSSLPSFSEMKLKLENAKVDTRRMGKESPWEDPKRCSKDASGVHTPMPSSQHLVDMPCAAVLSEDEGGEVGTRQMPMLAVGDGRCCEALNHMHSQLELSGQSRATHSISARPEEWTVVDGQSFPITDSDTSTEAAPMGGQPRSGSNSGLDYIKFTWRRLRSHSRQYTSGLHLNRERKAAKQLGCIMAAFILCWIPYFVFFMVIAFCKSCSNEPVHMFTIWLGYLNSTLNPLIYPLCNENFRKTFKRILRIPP
Experimental: as §1, §2
In this test, the organ on which this action has been studied is the guinea-pig ileum. The nutrient liquid employed is Tyorode, the agonist is histamine and the antagonist is the product under study.

[8] = Acute toxicity in mice (DL50), peroral; details: mouse, in vivo, po, mortality over 48 hours
Experimental: The acute toxicity is evaluated according to the mortality observed during a period of 48 hours on batches of four mice which have received perorally 100, 200, 400, 800 and 1600 mg/kg of the compound under study.

[9] = system: mice; experiment: Antagonism produced by Naloxone in the Siegmund test; assay type: in vivo
Experimental: as §3
The dose DE50 (which produces a 50% reduction in the number of contortions with respect to the reference animals) is calculated on the basis of the dose/effect relation. The following results are thus obtained:
This antagonism is sought in the Siegmund test performed on mice with phenylbenzoquinone as described earlier. Naloxone is administered by subcutaneous injection at a fixed dose at the same time as the product under study.

Compound	nature of antagonism with respect to serotonin [1]	ED50 [2]	nature of antagonism by harmine with respect to the product [3]	affinity parameter (pD2) as agonist [4]	IC50 [5] [µM]	ED30 [6] [mg/kg]	DE30 (30% increase in licking time) [6] [micro-moles per kg]	affinity parameter (pA2) with respect to histamine [7]	nature of antagonism with respect to histamine [7]	LD50 at 48 h [8]	antagonism of analgesic effect by Naloxone (conclusion) [9]	Kb [1] [µM]
c1ccc(CN2CCN(c3coc4ccccc34)CC2)cc1 [1-(3'-benzofuryl)-4-benzylpiperazine]	non-competitive antagonist	22 µmol/kg and 6.5 mg/kg	competitive antagonism	7.0	> 300	20	70	5.99	competitive antagonist	5500 µmol/kg and 1600 mg/kg	antagonized by Naloxone	
CC(=O)n1cc(N2CCN(Cc3ccccc3)CC2)c2ccccc21 [known compound, 1-acetyl-3-benzylpiperazino-indole]	competitive antagonist	55 µmol/kg and 18 mg/kg	non-competitive antagonism	5.4	103	13	40		non-competitive antagonist	3000 µmol/kg and 1000 mg/kg	not antagonized	4.57
